Measured values: patent publication US8361970B2, “Growth factor binding molecules” (University of South Florida, priority 2000, dated 2013)
Where “and” joins values, the source holds several entries; their conditions need not be identical. Equal values may be shown once. Read-outs that look alike come from different tables or passages of the source. Positions of bridges follow the written chain, without caps; N, C: chain ends. Non-standard residues stand in square brackets, D forms with d. d2Nal = N[C@H](Cc1ccc2ccccc2c1)C(=O)O; dAbu = CC[C@@H](N)C(=O)O

Key:
Type in all cases: cell-based
[1] = test system: IGF-1 stimulated MAP kinase activation; test: Inhibition of IGF-1 stimulated MAP kinase (p42/p44) activation in IGFR/3T3 cells; conditions: 100 μM; IGFR/3T3, IGF-1 stimulated
Experimental: (§1) In other experiments, starved NIH 3T3 cells (PDGF-AA, PDGF-BB, aFGF, bFGF), NIH 3T3 cells overexpressing EGFR. IGF-1R or Flk-1 and the human breast carcinoma SkBr3 that overexpresses ErbB2 (HRGβ) are pretreated with GFB-111 (100 μM) for 5 min before 10 min stimulation with the indicated growth factors at the concentrations shown above and aFGF (10 ng/ml), bFGF (50 ng/ml), IGF-1 (50 ng/ml) and HRGβ (10 ng/ml). Cell lysates are then immunoblotted with anti-phospho Erk1/Erk2 as described above.
(§2) The ability of the GFB library to block the ability of IGF-1 to stimulate the IFG-1 R tyrosine phosphorylation and MAP kinase activation is evaluated using the cell assay described above with IGF-1R/3T3 cells as target cell. […] A preferred embodiment of the invention is a compound that binds to an insulin-like growth factor-1, of the general structure III, wherein R is n-butyl, n-propyl, or benzyl, and X1, X2, X3, and X4 optionally comprise identical cyclic peptide loops of the general structure II, and wherein R1, R2, R3, and R4 are each amino acid side chains that define a tetrapeptide sequence, wherein said tetrapeptide is covalently attached at the amino and carboxy termini of said tetrapeptide to a 3-aminomethyl-5-aminobenzamide linking group.

[2] = test system: PDGF-stimulated PDGFR tyrosine phosphorylation; test: Inhibition of PDGF-stimulated PDGFR tyrosine phosphorylation in NIH 3T3 cells (anti-phosphotyrosine Western blot); conditions: 5 min pretreatment, PDGF 10 ng/ml 10 min, read-out: (IC50) Inhibition PDGFR-Y-P
Experimental: Starved NIH 3T3 cells are pretreated with various growth factor binding agents (0-100 μM) for 5 min before stimulation with PDGF (10 ng/mL) for 10 min. The cells are then harvested and lysed, and the proteins from the lysates separated by SDS-PAGE and immunoblotted with an anti-phosphotyrosine antibody (4G10: Upstate Biotechnology, Lake Placid, N.Y.). The phosphotyrosine PDGF receptor bands are scanned, and the concentrations of growth factor binding molecules that inhibited the ability of PDGF to stimulate PDGFR tyrosine phosphorylation by 50% are determined.
(§3) Starved NIII 3T3 cells (PDGF-BB and PDGF-AA), NIH 3T3 cells overexpressing either EGFR (EGF) or Flk-1 (VEGF) are pre-treated with the indicated concentrations of GFB-111 for 5 minutes before 10 minutes of stimulation with PDGF-BB (10 ng/ml), PDGF-AA (10 ng/ml), EGF (100 ng/ml) and VEGF (50 ng/ml). Cell lysates are run on SDS-PAGE gels, then transferred to nitrocellulose and Western blotted with anti-phosphotyrosine (4G 10) or anti-phosphorylated Erk1/Erk2 (New England Biolabs).
A novel series of protein surface binding agents are prepared that bind PDGF and disrupt its signaling function. The molecules are composed of a central calix[4] arene scaffold to which is attached four peptide loop domains (FIG. 1). The peptide loop component is based on a cyclic hexapeptide in which two residues are replaced by a 3-aminomethylbenzoate dipeptide mimetic containing a 5-amino substituent for attachment to the scaffold. The resulting molecules (as shown in Table 1) contain a functionalized and variable surface approximately 500 Å^2 in area. Several peptide loop sequences are synthesized (Table 1) to provide molecular surfaces with negatively and positively charged as well as hydrophobic regions designed to bind to complementary areas on the target growth factor. To identify PDGF binding molecules from this library, a cell-based screening assay is developed with NIH 3T3 cells to detect molecules capable of blocking PDGF-BB-induced tyrosine autophosphorylation of the PDGF receptor. The ability of the identified molecules to bind PDGF-BB and inhibit interaction with its receptor is then confirmed biochemically. Starved NIH 3T3 cells are pretreated for 5 min with the synthetic molecules prior to stimulation with PDGF for 10 min. The effects of the molecules on PDGF-stimulated receptor tyrosine phosphorylation are determined by the antiphosphotyrosine Western blotting as described in Table 1. […] GFB-111 has four-fold symmetry containing 4 identical peptide loops with negative and hydrophobic residues, GlyAspGlyTyr (GDGY) (SEQ ID NO. 6), that are designed to be complementary to the PDGF surface involved in binding to PDGFR. The area of PDGF-BB that binds PDGFR is composed primarily of positive and hydrophobic residues.
Starved NIH 3T3 cells are pretreated with the various GFBs (0-100 μM) for 5 min. prior to stimulation with PDGF (10 ng/ml) for 10 min. The cells are then harvested lysed and the proteins from the lysates are separated by SDS-PAGE and immunoblotted with an anti-phosphotyrosine antibody (4G10, Upstate Biotechnology, Lake Placid, N.Y.). The phosphotyrosine PDGF receptor bands are scanned and the concentrations of GFBs that inhibit the ability of PDGF to stimulate PDGFR tyrosine phosphorylation by 50% are determined. Data for each compound is representative of at least two independent experiments. FIG. 1 illustrates the structure of growth factor binders. GFBs are synthesized as described by Park, H. D. et al., Protein surface recognition by synthetic receptors: A route to novel sub-micromolar inhibitors for chymotrypsin. J. Am. Chem. Soc. 121, 8-13 (1999); and Hamuro, Y. et al., A calixarene with four peptide loops: An antibody mimic for recognition of protein surfaces. Angew. Chemie Int. Ed. Engl. 36, 2680-2683 (1997), each herein incorporated by reference in its respective entirety.

[3] = test system: IGF-1 stimulated IGF-1R tyrosine phosphorylation; test: Inhibition of IGF-1 stimulated IGFR tyrosine phosphorylation in IGFR/3T3 cells; conditions: 100 μM; IGFR/3T3, IGF-1 stimulated
Experimental: as §2

[4] = test system: PDGF-stimulated Erk1/Erk2 activation; test: Inhibition of PDGF-stimulated activation of MAPK Erk1/Erk2 (p44/p42) in NIH 3T3 cells; conditions: NIH 3T3, PDGF stimulated
Experimental: as §3, §1

[5] = test system: VEGF-stimulated Flk-1 tyrosine phosphorylation; test: Inhibition of VEGF-stimulated Flk-1 tyrosine phosphorylation in Flk-1/3T3 cells; conditions: Flk-1/3T3, VEGF stimulated; read-out: (IC50) Inhibition Flk-1-Y-P
Experimental: as §3
(§4) In order to identify molecules that would bind vascular endothelial growth factor (VEGF), Flk-1/3T3 cell-based assay is used that relies on VEGF-stimulation of its receptor, Flk-1, tyrosine phosphorylation and subsequent MAP-kinase activation. The assay used herein identical to that used for PDGF, except that NIH 3T3 cells that overexpress Flk-1 are used. GFB-116, which has four identical loops with the sequence GKGK (SEQ ID NO. 10) is shown to be very potent and selective toward blocking the ability of VEGF to stimulate Flk-1 tyrosine phosphorylation and subsequent MAP-kinase activation as measured by phospho erk-1 and erk-2 also referred to in the Table as p42 and p44 (Table 4A). A preferred embodiment of the invention is a compound that binds to a vascular endothelial growth factor, of the general structure III (above) in which R is n-butyl, n-propyl, or benzyl, and X comprise covalently attached identical cyclic peptide loops wherein R1, R2, R3, and R4 are each amino acid side chains, as broadly defined above, that define a tetrapeptide sequence, wherein said tetrapeptide is covalently attached at the amino and carboxy termini of said tetrapeptide to 3-aminomethyl-5-aminobenzamide linking group, and wherein said tetrapeptide sequence is GKGK (SEQ ID NO. 10), GDGY (SEQ ID NO. 6), or functionally related derivatives thereof.

[6] = test system: VEGF-stimulated MAP kinase activation; test: Inhibition of VEGF-stimulated MAP kinase (p42/p44, Erk2/Erk1) activation in Flk-1/3T3 cells; conditions: Flk-1/3T3, VEGF stimulated
Experimental: as §3, §1, §4

[7] = head p42/Erk2 (p42 for GFB-132 to 137), read-out: (IC50) Inhibition p42/Erk2
[8] = read-out: (IC50) Inhibition p44
[9] = read-out: (IC50) Inhibition p42

| Substance | % Inhibition at 100 μM p42 [1] [%] | % Inhibition at 100 μM p44 [1] | IC50 [2] [µM] | % Inhibition at 100 μM IGF1R-Y-P [3] | IC50 [4, 7] [µM] | IC50 [4, 8] [µM] | IC50 [5] [µM] | IC50 [6, 9] [µM] | IC50 [6, 8] [µM] |
| --- | --- | --- | --- | --- | --- | --- | --- | --- | --- |
| GDGD [GFB-104] | −0.19 | 22.4% | > 500 | −28.4% | > 500 | – | – | – | – |
| GDGY [GFB-135] | 0.8 | 46.1% | 1.9 | 16.2% | 3.2 | 24 | – | – | – |
| GDGD [GFB-107] | 57.3 | 59.7% | 2.5 | – | 10 | – | < 10 | – | – |
| GFB-118: But-Calix scaffold with peptide loops 4-D-2-NalDGD (SEQ ID NO. 17) ([d2Nal]DGD; linker N-C via 3‑aminomethyl‑5‑aminobenzamide; also: four loops attached to But-Calix scaffold) | 16.4 | 55.2% | 0.7 | 1.5% | 1.2 | – | – | – | – |
| GDAD [GFB-110] | – | 55.4% and 47.1% | 1.7 | 40.9% and 32.4% | 7 | – | – | – | – |
| GDGY [GFB-134] | 4.9 | 53.5% | 1.9 | 16.8% | 2.5 | 2.6 | – | – | – |
| GDDG [GFB-120] | 68.1 | 85.9% | 1.3 | 35.4% | 1.7 | – | – | – | – |
| GDND [GFB-117] | 17.1 | 61.5% | 5.8 | 4.9% | 36 | – | – | – | – |
| GDDD [GFB-129] | 2.8 | 33.4% | – | 3.4% | – | – | – | – | – |
| But-Calix scaffold with peptide loops 4-d-ADGD, (D-Ala)-Asp-Gly-Asp (SEQ ID NO. 3) ([dA]DGD; linker N-C via 3‑aminomethyl‑5‑aminobenzamide; also: peptide loops (4) attached to But-Calix scaffold) [GFB-108] | 67.8 | 80.1% | 9 | – | 57 | – | 10 | 50 | 50 |
| GDLD [GFB-109] | 68.3 | 79.7% | 7.5 | – | 15 | – | – | – | – |
| GDDG [GFB-123] | 26.7 | 62.4% | > 50 | 24.2% | > 50 | – | – | – | – |
| GDGD [GFB-103] | – | – | > 500 | – | > 500 | – | – | – | – |
| GFB-121: But-Calix scaffold with peptide loops 4-D-AbuDGD (SEQ ID NO. 18) ([dAbu]DGD; linker N-C via 3‑aminomethyl‑5‑aminobenzamide; also: four loops attached to But-Calix scaffold) | 28.3 | 62.1% | 5.6 | 33.8% | 8.5 | – | – | – | – |
| GDGY [GFB-132] | 11.0 | 39.4% | 0.4 | 30.2% | 2.9 | 3 | – | – | – |
| GFGD [GFB-101] | – | – | > 500 | – | > 500 | – | > 100 | > 100 | > 100 |
| GDGY [GFB-137] | 5.9 | 38.2% | 0.4 | 36.0% | 2.9 | 47 | – | – | – |
| GDGY [GFB-128] | −6.1 | 38.2% | 26 | −12.0% | > 50 | – | – | – | – |
| GDDY [GFB-130] | −19.7 | −17.5% | – | 22.7% | – | – | – | – | – |
| GKGF [GFB-115] | −12.4 | 51.9% | > 50 | −38.3% | > 50 | – | – | – | – |
| GDDD [GFB-136] | 15.0 | – | 3 | 40.6% | 25 | 24 | – | – | – |
| GDDY [GFB-122] | 33.6 | 66.6% | 1.7 | 38.4% | 19 | – | – | – | – |
| PDGD [GFB-119] | 29.7 | 66.2% | 20 | 16.7% | 32 | – | – | – | – |
| GDFD [GFB-102] | – | – | > 500 | – | – | – | – | > 100 | > 100 |
| GDDG [GFB-131] | −6.2 | 20.0% | – | 30.2% | – | – | – | – | – |
